From patent US20080242681A1, “N-4-(6-(Hetero)Aryl-Pyrimidin-4-Ylaminophenyl)-Benzenesulfonamides as Kinase Inhibitors” (Altana Pharma AG, priority 2004, published 2008)
Counter-ions that a name gives are not always drawn. Values belong to the molecule of their own block, whether it stands above or below them.

How the values were obtained:
Type in all cases: biochemical
PKCη = biological target: T1, PKCη (Homo sapiens, UniProt P24723); assay: Protein Kinase C η assay (SPA); conditions: human recombinant PKCη from Sf21 insect cells, read-out: IC50, inhibition of PKC η
T1 construct: made in house; host or cells: Sf21 insect cells
T1 sequence (P24723 whole entry): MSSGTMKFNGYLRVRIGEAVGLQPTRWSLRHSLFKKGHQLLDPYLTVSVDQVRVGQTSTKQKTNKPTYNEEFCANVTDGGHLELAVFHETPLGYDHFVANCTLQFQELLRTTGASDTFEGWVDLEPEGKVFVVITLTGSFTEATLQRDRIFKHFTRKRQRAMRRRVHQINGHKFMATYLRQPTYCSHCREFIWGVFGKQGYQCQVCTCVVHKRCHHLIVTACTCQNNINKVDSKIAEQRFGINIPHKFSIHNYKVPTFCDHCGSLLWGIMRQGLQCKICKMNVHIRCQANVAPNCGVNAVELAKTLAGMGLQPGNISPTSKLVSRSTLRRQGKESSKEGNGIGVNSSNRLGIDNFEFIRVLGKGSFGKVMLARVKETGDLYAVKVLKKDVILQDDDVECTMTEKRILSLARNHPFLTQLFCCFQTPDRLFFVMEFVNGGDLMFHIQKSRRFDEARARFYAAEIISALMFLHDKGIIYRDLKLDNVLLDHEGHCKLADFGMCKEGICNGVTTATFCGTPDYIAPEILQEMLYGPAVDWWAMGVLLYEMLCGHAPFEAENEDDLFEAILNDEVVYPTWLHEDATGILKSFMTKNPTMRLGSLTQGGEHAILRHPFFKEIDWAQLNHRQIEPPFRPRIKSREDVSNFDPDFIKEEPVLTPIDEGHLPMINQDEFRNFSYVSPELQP
Experimental: (§1) The compounds of formula 1 are tested for their activity on different protein kinases and PKC isoforms using a scintillation proximity assay (SPA, Amersham International plc). ^33P-labeled peptides are captured onto streptavidin coated yttrium silicate SPA beads. β-particles, emitted from the captured ^33P-labeled substrate in close proximity to the bead are able to excite the scintillant, resulting in the generation of quantifiable light. The assay is performed in a 96-well polystyrene microtiterplate (1450-514, Isoplates, Wallac, Turku, Finland). The reaction mixture (50 μl) contains 10 μl of the test compound together with 10 μl of the relevant kinase, diluted in the relevant dilution buffer, 5 μl of 10 μM phorbol myristate acetate (PMA) in H2O, 5 μl of 1.6 mM phosphatidylserine (Sigma-Aldrich Chemie GmbH, Stein-heim, Germany) in 20 mM Tris/HCL buffer pH 7.4, 5 μl of 0.3% BSA in H2O, 5 μl of 30 μM relevant substrate and 10 μl of 5 μM ATP and 0.1 μCi of ^33P-ATP (Amersham, Freiburg, Germany) in 200 mM Tris/HCL pH 7.5 and 200 mM MgCl2. Incubation is performed for 40 min at room temperature (RT) without shaking. Reaction is stopped by adding 150 μl of cold stop solution containing 10 mM ATP, 5 mM EGTA pH 7.5, 0.1% Triton X-100 and 0.2 mg streptavidin coated yttrium silicate SPA beads (Amersham, RPNQ 0012). The sealed plate is incubated for 60 min at RT. Thereafter the MTP is counted in a Microbeta Jet (Wallac). IC50 measurement is performed on a routine basis by incubation a serial dilution of inhibitor at concentrations ranging between 0.01 and 100 μM according to the method described above. Background values are the signals of the reaction mixture without addition of the relevant kinase and are subtracted from all values. 100% values are the signals of the reaction mixture without addition of inhibitors.
(§2) Dependent on the efficacy of the inhibitors In the various test systems, corresponding IC50 values are calculated from concentration-inhibition curves by nonlinear regression analysis using the program GraphPad Prism (GraphPad Software Inc., San Diego, Calif.).
(§3) Human recombinant nickel bead purified PKCη from Sf21 insect cells is used under the assay conditions as described above (Section A.1). The enzyme is diluted in PKC dilution buffer containing 1 mM Hepes pH 7.4, 0.5 mM DTT and 0.001% Triton X-100. The kinase reaction is performed with the biotinylated PKCη pseudosubstrate solved in H2O. The examples 52, 55, 118 and 135 inhibit PKC η in this assay with an IC50 between 6 and 50 μM.

PKCθ = biological target: T2, PKCθ (Homo sapiens, UniProt Q04759); assay: Protein Kinase C θ assay (SPA); conditions: human recombinant PKCθ from Sf21 insect cells, read-out: IC50, inhibition of PKC θ
T2 construct: made in house; host or cells: Sf21 insect cells
T2 sequence (Q04759 whole entry): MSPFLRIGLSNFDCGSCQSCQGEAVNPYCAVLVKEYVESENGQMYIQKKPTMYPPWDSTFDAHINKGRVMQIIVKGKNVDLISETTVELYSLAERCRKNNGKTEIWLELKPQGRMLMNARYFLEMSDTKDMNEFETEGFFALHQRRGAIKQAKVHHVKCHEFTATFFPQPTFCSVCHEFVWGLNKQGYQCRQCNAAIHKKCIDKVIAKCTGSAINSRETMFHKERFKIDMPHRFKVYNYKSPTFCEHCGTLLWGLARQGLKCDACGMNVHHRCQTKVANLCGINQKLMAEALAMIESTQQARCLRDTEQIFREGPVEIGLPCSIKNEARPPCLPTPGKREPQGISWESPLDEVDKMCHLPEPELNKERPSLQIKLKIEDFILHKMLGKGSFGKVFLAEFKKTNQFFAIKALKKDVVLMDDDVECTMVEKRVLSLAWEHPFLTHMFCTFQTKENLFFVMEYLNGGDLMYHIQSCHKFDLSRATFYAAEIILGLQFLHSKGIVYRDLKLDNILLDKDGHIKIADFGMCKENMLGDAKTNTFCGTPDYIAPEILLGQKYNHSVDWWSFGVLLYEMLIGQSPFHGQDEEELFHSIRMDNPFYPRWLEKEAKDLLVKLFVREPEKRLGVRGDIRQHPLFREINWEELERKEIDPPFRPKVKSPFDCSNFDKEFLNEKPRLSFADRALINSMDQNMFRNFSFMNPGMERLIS
Experimental: as §1, §2
as §3, with “PKCθ” for “PKCη”, “8, 22, 46, 115,” for “52, 55,”, “161” for “135”, “9” for “η”, “IC50<1” for “IC50 between 6 and 50”

PKCα = biological target: T3, PKCα (Homo sapiens, UniProt P17252); assay: Protein Kinase Cα assay (SPA); conditions: human recombinant PKCα, biotinylated PKCα pseudosubstrate, 0.5 mM CaCl2, read-out: IC50, inhibition of PKCα
T3 construct: purchased Panvera (Invitrogen GmbH, Karlsruhe, Germany)
Experimental: as §1, §2
(§4) Human recombinant PKCα was obtained from Panvera (Invitrogen GmbH, Karlsruhe, Germany) and is used under the assay conditions as described above (Section A.1). The enzyme is diluted in PKC dilution buffer containing 1 mM Hepes pH 7.4, 0.5 mM DTT and 0.001% Triton X-100. The assay additionally contains 0.5 mM CaCl2. The kinase reaction is performed with the biotinylated PKCα pseudosubstrate solved in H2O.

PKCβ1 = biological target: T4, PKCβ1 (Homo sapiens, UniProt P05771); assay: Protein Kinase Cβ1 assay (SPA); conditions: human recombinant PKCβ1, SPA, biotinylated PKCα pseudosubstrate, 0.5 mM CaCl2; read-out: IC50, inhibition of PKC β1
T4 construct: purchased Panvera
T4 sequence (P05771 whole entry): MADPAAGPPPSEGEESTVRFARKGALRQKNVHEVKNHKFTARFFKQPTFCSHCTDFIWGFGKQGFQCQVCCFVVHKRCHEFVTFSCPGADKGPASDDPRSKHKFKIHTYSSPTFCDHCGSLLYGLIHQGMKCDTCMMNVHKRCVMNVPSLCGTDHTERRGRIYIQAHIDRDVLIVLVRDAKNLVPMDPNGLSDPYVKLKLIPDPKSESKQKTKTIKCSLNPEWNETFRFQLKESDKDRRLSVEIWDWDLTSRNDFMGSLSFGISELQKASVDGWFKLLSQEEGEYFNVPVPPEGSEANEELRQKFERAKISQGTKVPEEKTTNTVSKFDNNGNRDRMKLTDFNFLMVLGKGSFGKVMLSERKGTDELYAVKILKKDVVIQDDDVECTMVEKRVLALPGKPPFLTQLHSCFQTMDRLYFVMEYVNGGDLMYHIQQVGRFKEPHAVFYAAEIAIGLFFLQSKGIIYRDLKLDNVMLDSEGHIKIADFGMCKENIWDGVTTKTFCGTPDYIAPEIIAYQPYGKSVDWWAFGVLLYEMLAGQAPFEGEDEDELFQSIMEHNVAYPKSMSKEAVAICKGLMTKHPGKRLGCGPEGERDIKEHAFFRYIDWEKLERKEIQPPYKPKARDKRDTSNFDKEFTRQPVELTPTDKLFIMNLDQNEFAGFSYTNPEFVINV
Experimental: as §1, §2
as §4, with “recombinant PKCβ1” for “recombinant PKCα”, “Panvera” for “Panvera (Invitrogen GmbH, Karlsruhe, Germany)”, “H2O. The examples 29, 45, 52, 128 and 139 inhibit PKC β1 in this assay with an IC50 between 2 and 40 μM.” for “H2O.”

PKCε = biological target: T5, PKCε (Homo sapiens, UniProt Q02156); assay: Protein Kinase C ε assay (SPA); conditions: human recombinant PKCε, PKCη pseudosubstrate, read-out: IC50, inhibition of PKC ε
T5 construct: purchased Panvera
T5 sequence (Q02156 1-737): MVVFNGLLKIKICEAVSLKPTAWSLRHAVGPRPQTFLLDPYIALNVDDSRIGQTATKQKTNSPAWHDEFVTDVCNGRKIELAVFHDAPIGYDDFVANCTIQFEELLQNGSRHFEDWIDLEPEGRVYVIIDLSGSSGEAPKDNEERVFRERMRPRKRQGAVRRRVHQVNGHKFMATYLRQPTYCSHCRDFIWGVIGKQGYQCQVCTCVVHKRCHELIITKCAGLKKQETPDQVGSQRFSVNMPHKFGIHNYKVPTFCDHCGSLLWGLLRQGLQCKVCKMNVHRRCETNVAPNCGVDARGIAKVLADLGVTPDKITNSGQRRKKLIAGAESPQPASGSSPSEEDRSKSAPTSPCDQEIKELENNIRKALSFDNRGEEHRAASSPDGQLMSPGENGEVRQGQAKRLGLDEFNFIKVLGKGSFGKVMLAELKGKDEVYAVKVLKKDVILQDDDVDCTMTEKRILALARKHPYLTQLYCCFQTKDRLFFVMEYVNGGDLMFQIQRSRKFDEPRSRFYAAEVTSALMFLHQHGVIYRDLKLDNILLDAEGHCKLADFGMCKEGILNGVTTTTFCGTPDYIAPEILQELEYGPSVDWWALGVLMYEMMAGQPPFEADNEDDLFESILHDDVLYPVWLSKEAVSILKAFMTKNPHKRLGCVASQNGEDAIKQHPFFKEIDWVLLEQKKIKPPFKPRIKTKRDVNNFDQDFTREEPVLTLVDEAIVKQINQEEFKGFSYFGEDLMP
Experimental: as §1, §2
Human recombinant PKCε was obtained from Panvera and is used under the assay conditions as described above (Section A.1). The enzyme is diluted in PKC dilution buffer containing 1 mM Hepes pH 7.4, 0.5 mM DTT and 0.001% Triton X-100. The kinase reaction is performed with the biotinylated PKCη pseudosubstrate solved in H2O.

IC50 (PKCβ1): 2 to 40 µM
Compound: COc1ccc(S(=O)(=O)Nc2ccc(Nc3cc(-c4ccc(OCCCN5CCOCC5)cc4)ncn3)cc2)cc1 [Example 45, 4-Methoxy-N-(4-{6-[4-(3-morpholin-4-yl-propoxy)-phenyl]-pyrimidin-4-ylamino}-phenyl)-benzenesulfonamide]

IC50 (PKCα): 1 to 18 µM
Compound: O=S(=O)(Nc1ccc(Nc2cc(-c3ccc(OCCN4CCOCC4)cc3)ncn2)cc1)c1c(F)cccc1F [Example 37, 2,6-Difluoro-N-(4-{6-[4-(2-morpholin-4-yl-ethoxy)-phenyl]-pyrimidin-4-ylamino}-phenyl)-benzenesulfonamide]

IC50 (PKCε): 4 to 21 µM
Compound: O=S(=O)(Nc1ccc(Nc2cc(-c3ccc(OCCCN4CCOCC4)cc3)ncn2)cc1)c1c(F)cccc1F [Example 38, 2,6-Difluoro-N-(4-{6-[4-(3-morpholin-4-yl-propoxy)-phenyl]-pyrimidin-4-ylamino}-phenyl)-benzenesulfonamide]

IC50 (PKCθ): < 1 µM
Compound: COc1ccc(S(=O)(=O)Nc2ccc(Nc3cc(-c4cccc(OCCCN5CCOCC5)c4)ncn3)cc2)cc1 [Example 46, 4-Methoxy-N-(4-{6-[3-(3-morpholin-4-yl-propoxy)-phenyl]-pyrimidin-4-ylamino}-phenyl)-benzenesulfonamide]

IC50 (PKCη): 6 to 50 µM
IC50 (PKCβ1): 2 to 40 µM
Compound: COc1ccc(S(=O)(=O)Nc2ccc(Nc3cc(-c4ccc(OCCN5CCN(C)CC5)cc4)ncn3)cc2)cc1 [Example 52, 4-Methoxy-N-[4-(6-{4-[2-(4-methyl-piperazin-1-yl)-ethoxy]-phenyl}-pyrimidin-4-ylamino)-phenyl]-benzenesulfonamide]

IC50 (PKCη): 6 to 50 µM
Compound: Cc1ccc(S(=O)(=O)Nc2ccc(Nc3cc(-c4ccc(OCCCN5CCN(C)CC5)cc4)ncn3)cc2)cc1 [Example 55, 4-Methyl-N-[4-(6-{4-[3-(4-methyl-piperazin-1-yl)-propoxy]-phenyl}-pyrimidin-4-ylamino)-phenyl]-benzenesulfonamide]

IC50 (PKCε): 4 to 21 µM
Compound: CN1CCN(CCOc2ccc(-c3cc(Nc4ccc(NS(=O)(=O)c5c(F)cccc5F)cc4)ncn3)cc2)CC1 [Example 47, 2,6-Difluoro-N-[4-(6-{4-[2-(4-methyl-piperazin-1-yl)-ethoxy]-phenyl}-pyrimidin-4-ylamino)-phenyl]-benzenesulfonamide]

Second part, the molecule before the results:

Compound: Cc1ccc(S(=O)(=O)Nc2ccc(Nc3cc(-c4ccc5c(ccn5CCCN(C)C)c4)ncn3)cc2)cc1 [Example 135, N-(4-{6-[1-(3-Dimethylamino-propyl)-1H-indol-5-yl]-pyrimidin-4-ylamino}-phenyl)-4-methyl-benzenesulfonamide]
IC50 (PKCη): 6 to 50 µM

Compound: O=S(=O)(Nc1ccc(Nc2cc(-c3ccc4c(ccn4CCN4CCCC4)c3)ncn2)cc1)c1ccc(F)c(Cl)c1 [Example 161, 3-Chloro-4-fluoro-N-(4-{6-[1-(2-pyrrolidin-1-yl-ethyl)-1H-indol-5-yl]pyrimidin-4-ylamino}-phenyl)-benzenesulfonamide formic acid salt]
IC50 (PKCθ): < 1 µM

Compound: O=S(=O)(Nc1ccc(Nc2cc(-c3cccc4ccccc34)ncn2)cc1)c1c(F)cccc1F [Example 16, 2,6-Difluoro-N-[4-(6-naphthalen-1-yl-pyrimidin-4-ylamino)-phenyl]-benzenesulfonamide]
IC50 (PKCα): 1 to 18 µM

Compound: CC1Cc2cc(-c3cc(Nc4ccc(NS(=O)(=O)c5c(F)cccc5F)cc4)ncn3)ccc2O1 (stereo not shown) [Example 115, 2,6-Difluoro-N-{4-[6-(2-methyl-2,3-dihydro-benzofuran-5-yl)-pyrimidin-4-ylamino]-phenyl}-benzenesulfonamide]
IC50 (PKCθ): < 1 µM

Compound: COc1ccc(-c2cc(Nc3ccc(NS(=O)(=O)c4ccccc4F)cc3)ncn2)cc1 [Example 29, 2-Fluoro-N-{4-[6-(4-methoxy-phenyl)-pyrimidin-4-ylamino]-phenyl}-benzenesulfonamide]
IC50 (PKCβ1): 2 to 40 µM

Compound: O=S(=O)(Nc1ccc(Nc2cc(-c3ccc4[nH]ccc4c3)ncn2)cc1)c1ccccc1F [Example 120, 2-Fluoro-N-{4-[6-(1H-indol-5-yl)-pyrimidin-4-ylamino]-phenyl}-benzenesulfonamide]
IC50 (PKCα): 1 to 18 µM

Compound: CC(=O)c1ccc(-c2cc(Nc3ccc(NS(=O)(=O)c4c(F)cccc4F)cc3)ncn2)cc1 [Example 27, N-{4-[6-(4-Acetyl-phenyl)-pyrimidin-4-ylamino]-phenyl}-2,6-difluoro-benzenesulfonamide]
IC50 (PKCε): 4 to 21 µM

Compound: CN(C)CCn1ccc2cc(-c3cc(Nc4ccc(NS(=O)(=O)c5c(F)cccc5F)cc4)ncn3)ccc21 [Example 139, N-(4-{6-[1-(2-Dimethylamino-ethyl)-1H-indol-5-yl]-pyrimidin-4-ylamino}-phenyl)-2,6-difluoro-benzenesulfonamide]
IC50 (PKCβ1): 2 to 40 µM

Compound: O=S(=O)(Nc1ccc(Nc2cc(-c3ccc4[nH]ccc4c3)ncn2)cc1)c1c(F)cccc1F [Example 119, 2,6-Difluoro-N-{4-[6-(1H-indol-5-yl)-pyrimidin-4-ylamino]-phenyl}-benzenesulfonamide]
IC50 (PKCα): 1 to 18 µM

Compound: O=S(=O)(Nc1ccc(Nc2cc(-c3ccccc3)ncn2)cc1)c1c(F)cccc1F [Example 8, 2,6-Difluoro-N-[4-(6-phenyl-pyrimidin-4-ylamino)-phenyl]-benzenesulfonamide]
IC50 (PKCθ): < 1 µM

Compound: CN1CCN(CCn2ccc3cc(-c4cc(Nc5ccc(NS(=O)(=O)c6ccc(F)cc6F)cc5)ncn4)ccc32)CC1 [Example 150, 2,4-Difluoro-N-[4-(6-{1-[2-(4-methyl-piperazin-1-yl)-ethyl]-1H-indol-5-yl}-pyrimidin-4-ylamino)-phenyl]-benzenesulfonamide formic acid salt]
IC50 (PKCα): 1 to 18 µM
